In US9884874B2, “Bromodomain-inhibiting compounds and pharmaceutical composition comprising same for preventing or treating a cancer” (KAINOS MEDICINE, INC., priority 2014, dated 2018):

Assays:
[1] = system: NCI-H526 (variant small cell lung cancer); experiment: Anti-proliferative activity, NCI-H526; format: cell-based; settings: Homo sapiens, read-out: Cell proliferation, IC50
[2] = system: MV4-11 human leukemia xenograft; experiment: Tumor growth inhibition in MV4-11 human leukemia mouse xenograft; format: in vivo, NOD/SCID mice; settings: PO, 5 d ON/2 d Off × 2 (14 days)
Procedure: Tumor growth inhibition (TGI) activities of compound 1 were tested in MV4-11 human leukemia mouse xenograft.
A total of 48 NOD/SCID female mice of 6-8 weeks age and weighing approximately 18 to 22 g, purchased from HFK (Beijing HFK Bio-Technology Co. Ltd.), were used for tumor inoculation.
The MV4-11 cell line was maintained in vitro in IMDM (Iscove's modified Dulbecco's media) supplemented with 10% fetal bovine serum at 37° C. in an atmosphere of 5% CO2 in air. The tumor cells were routinely subcultured twice weekly by trypsin-EDTA treatment. The cells growing in an exponential growth phase were harvested and counted for tumor inoculation. The treatments were started when the tumor size reached approximately 150-200 mm^3.
Each mouse was inoculated subcutaneously at the right flank with MV4-11 tumor cells (1×10^7 cells) in mixture of 100 ul PBS and 100 ul of Matrigel™ for tumor development. A total of […] mice were used for each group. The amounts of treated compounds are represented in milligram (mg) of compound per kilogram (kg) of animal body weight (mg/kg, mpk). Administration route of the test compound was PO (oral) injection. […]
Tumor sizes were measured using a caliper, once every 4 days, and the tumor volume was expressed in mm^3 using Equation 1: V=0.5a×b^2 [Equation 1] […]

[3] = target: human BRD4 bromodomain 1 (Homo sapiens (Human), UniProt O60885); experiment: Bromodomain binding assay (BRD4 Alpha-screen); settings: acetylated histone H4 peptide
Procedure: Bromodomain binding assays were carried out in Reaction Biology (PA, USA) to test the degrees of the inventive compounds in inhibiting the human BRD4 bromodomain 1 by Alpha-screen assay method.
Recombinant human BRD4 bromodomain 1 expressed in E. coli with N-terminal His-tag was used as the enzyme target.
A synthetic peptide ([…]-GSGSK-biotin) containing 1 to 21th amino acids of histone H4 acetylated at lysine 5, 8, 12 and 16 and conjugated to biotin was purchased from Millipore.
BRD4-1 (44 to 170th amino acids; Genbank Accession # NM_058243) was expressed in E. coli with N-terminal His-tag (see, Ni-NTA spin Kit Handbook (Qiagen), second edition, January, 2008). Nickel-Chelate ALPHA acceptor beads (Perkin Elmer) were used to specifically bind BRD4-1, and ALPHA streptavidin donor beads (Perkin Elmer) were used because they specifically recognized the biotinylated H4 peptide.
BRD binding assays were performed in a mixture comprising 50 mM Hepes (pH7.5), 100 mM NaCl, 0.05% CHAPS, 0.1% BSA, and 1% DMSO. After an assay reaction time of 60 min at 25° C., binding was measured with streptavidin donor beads and nickel-chelate acceptor beads. ALPHA signal was detected on Enspire (Ex/Em=680/520-620 nm). IC50 values were calculated from the fit of the dose-response curves. All IC50 values represent geometric mean values of a minimum of four determinations. These assays generally produced results within 3-fold of the reported mean.

[4] = system: LnCAP (human prostatic adenocarcinoma cell line); experiment: Anti-proliferative activity test (CellTiter-Glo), LnCAP; format: cell-based; settings: first value of LnCAP/MV4-11 cell, read-out: Cell proliferation IC50 (LnCAP)
Procedure: IC50 (uM) of the compounds obtained in Examples 1 to 18 against hematological cancer cells and solid tumors was measured for identifying anti-proliferative activities.
A human prostatic adenocarcinoma cell line, LnCAP (ATCC®, CRL-1740) and human leukemia cell line MV4-11 (ATCC®, CRL-9591) were used to test the degrees of the compounds 1 to 18 in inhibiting the cancer cell growth. The testing cell concentration was adjusted to 6.7×10^3 cells/ml with a culture medium supplemented with 10% FBS, in the temperature of 37° C., 5% CO2 and 95% humidity. Culture media and FBS were purchased from GIBCO. 90 μL of cell suspensions thus obtained was added to two 96-well plates with the final cell density of 600 cells/well, followed by addition of 10 μL of culture medium to each well of plate. The plates were incubated overnight in a humidified incubator at 37° C. with 5% CO2.
Compounds 1 to 18 were each dissolved with dimethylsulfoxide (DMSO) or phosphate buffer solution (PBS) as a stock solution, and 200× solutions of test compound (2 mM) using DMSO were prepared. Then, the DMSO solution thus obtained was diluted 20-fold with culture medium or PBS to obtain 10× working solution. 10 μL of 10× working solution (drug solution) was dispensed to each well (triplicate for each concentration). The final concentration of DMSO in culture medium was 0.5% [v/v].
Cell viability was determined using CellTiter-Glo® (CTG) assay. 100 μL of CellTiter-Glo® was added to the equal volume of the cultured cells to read luminescence in EnVision Multi Label Reader.

[5] = Animal pharmacokinetics in ICR mice; format: in vivo; settings: mouse; for AUC / MRT / clearance / bioavailability: ICR, in vivo
Procedure: Pharmacokinetics of the compounds of 1, 2, 7, 8 11 and 15 were evaluated in ICR mice (6˜8 weeks, 20˜25 g) following intravenous (IV) administration at 10 mg/kg and per oral (PO) administration at 10 mg/kg dose level, respectively. Especially, the additional dose level of Compound 1 was 30 mg/kg.
For serum compound analysis, blood samples were collected by cardiac puncture over 24 hr time course. 20 μL of spiked plasma was added into a 96-well plate, adding ten volumes of internal standard (IS) in acetonitrile (ACN) to the obtained precipitated protein mixed thoroughly, centrifuged at 4,000 rpm for 10 min. 150 μL of supernatant thus obtained was transferred to another pre-labeled 96-well plate, mixed with 150 μL of water. 5 μL or 10 μL of the mixture was injected into the LC-MS system under the following conditions:
Column: API-4000+Waters UPLC (TCLM08);
Lower limit of quantification (LLOQ) was at 1 ng/mL. Pharmacokinetic parameters of half-life (T1/2), clearance (CL), maximum plasma concentration (Cmax), mean residence time (MRT) and bioavailability (F %), plasma exposure (AUC) of the compound were calculated using Phoenix WinNonlin 6.3 (non-compartmental model).

[6] = system: OPM-2 (multiple myeloma); experiment: Anti-proliferative activity, OPM-2; format: cell-based; settings: Homo sapiens, read-out: Cell proliferation, IC50

## COc1ccc2c(c1)C(c1ccc(Cl)cc1)=N[C@@H](COS(C)(=O)=O)c1nnc(C)n1-2 [Compound 1, (R)-(6-(4-chlorophenyl)-8-methoxy-1-methyl-4H-benzo[f]-[1,2,4]triazolo[4,3-a][1,4]diazepin-4-yl)methyl methanesulfonate]
[1]
  IC50: 2620 nM
[2]; 50 mpk
  % TGI: 77%
[2]; 100 mpk
  % TGI: 84%
[3]
  IC50: 190 nM
[4]
  IC50: 470 nM
[5]; IV, 10 mg/kg
  AUC: 74 µM·h
  MRT: 4.7 h
  clearance: 5.1 mL/min/kg
[5]; IV, 30 mg/kg
  AUC: 302 µM·h
  clearance: 3.7 mL/min/kg
[5]; PO, 10 mg/kg
  AUC: 76 µM·h
  MRT: 6.2 h
  bioavailability: 103%
[5]; PO, 30 mg/kg
  AUC: 260 µM·h
  bioavailability: 86.2%
[5]; FIG. 1, 10 and 30 mg/kg
  dose linearity in plasma exposure (in words): good dose linearity in plasma exposure
[6]
  IC50: 1450 nM
